pIC50: −log10 of the molar value.

For one assay, the target named is T1, aurora2 kinase (Homo sapiens, UniProt O14965).
T1 construct: made in house; host or cells: Spodoptera frugiperda Sf21 insect cells (baculovirus, pFastBac HTc)
T1 sequence (O14965 1-403): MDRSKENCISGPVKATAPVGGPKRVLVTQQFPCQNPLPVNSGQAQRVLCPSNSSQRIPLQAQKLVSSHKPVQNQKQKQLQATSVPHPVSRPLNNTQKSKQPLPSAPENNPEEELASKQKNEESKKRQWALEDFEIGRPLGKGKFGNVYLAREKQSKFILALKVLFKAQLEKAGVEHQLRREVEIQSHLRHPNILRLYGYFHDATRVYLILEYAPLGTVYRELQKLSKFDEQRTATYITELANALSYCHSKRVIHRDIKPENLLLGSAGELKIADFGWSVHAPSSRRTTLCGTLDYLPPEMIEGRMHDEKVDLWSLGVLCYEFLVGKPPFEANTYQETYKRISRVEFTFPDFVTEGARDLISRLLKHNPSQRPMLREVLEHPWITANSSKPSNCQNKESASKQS
Put plainly: In vitro aurora2 kinase inhibition test. The format is biochemical.

In assay [1] the test system is MCF-7 cells. Put plainly: In vitro cell proliferation assay, Assay 2 (BrdU incorporation). The following applies: Homo sapiens, MCF7; MCF-7, 48 hours with compound, 2 hour BrdU labelling; read-out: concentration giving 50% inhibition of BrdU incorporation. Format: cell-based. The source says: (§1) These and other assays can be used to determine the ability of a test compound to inhibit the growth of adherent mammalian cell lines, for example the human tumour cell line MCF7.
This assay determines the ability of a test compound to inhibit the incorporation of the thymidine analogue, 5′-bromo-2′-deoxy-uridine (BrdU) into cellular DNA. MCF-7 or other adherent cells were typically seeded at 0.8×10^4 cells per well in DMEM (Sigma Aldrich) without phenol red, plus 10% foetal calf serum, 1% L-glutamine and 1% penicillin/streptomycin (50 μl/well) in 96 well tissue culture treated 96 well plates (Costar) and allowed to adhere overnight. […] The optical density of the wells was then determined at 690 nm wavelength using a Titertek Multiscan plate reader. […]

The test system of the next assay is MCF7 cells. Put plainly: In vitro cell cycle analysis assay (FACS, propidium iodide). The following applies: 12.76 μM, 24 hours. Format: cell-based, human. The method, then: This assay determines the ability of a test compound to arrest cells in specific phases of the cell cycle. Many different mammalian cell lines could be used in this assay and MCF7 cells are included here as an example. MCF-7 cells were seeded at 3×10^5 cells per T25 flask (Costar) in 5 ml DMEM (no phenol red 10% FCS, 1% L-glutamine 1% penicillin/streptomycin). Flasks were then incubated overnight in a humidified 37° C. incubator with 5% CO2. The following day 1 ml of DMEM (no phenol red 10% FCS, 1% L-glutamine 1% penicillin/streptomycin) carrying the appropriate concentration of test compound solubilised in DMSO was added to the flask. A no compound control treatments was also included (0.5% DMSO). The cells were then incubated for a defined time (usually 24 hours) with compound. After this time the media was aspirated from the cells and they were washed with 5 ml of prewarmed (37° C.) sterile PBSA, then detached from the flask by brief incubation with trypsin and followed by resuspension in 10 ml of 1% Bovine Serum Albumin (BSA, Sigma-Aldrich Co.) in sterile PBSA. The samples were then centrifuged at 2200 rpm for 10 min. The supernatant was aspirated and the cell pellet was resuspended in 200 μl of 0.1% (w/v) Tris sodium citrate, 0.0564% (w/v) NaCl, 0.03% (v/v) Nonidet NP40, [pH 7.6]. Propridium Iodide (Sigma Aldrich Co.) was added to 40 μg/ml and RNAase A (Sigma Alrich Co.) to 100 μg/ml. The cells were then incubated at 37° C. for 30 minutes. The samples were centrifuged at 2200 rpm for 10 min, the supernatant removed and the remaining pellet (nuclei) resuspended in 200 μl of sterile PBSA. […] The samples were then transferred to LPS tubes and DNA content per cell analysed by Fluorescence activated cell sorting (FACS) using a FACScan flow cytometer (Becton Dickinson). Typically 25000 events were counted and recorded using CellQuest v1.1 software (Verity Software). Cell cycle distribution of the population was calculated using Modfit software (Verity Software) and expressed as percentage of cells in G0/G1, S and G2/M phases of the cell cycle. […]

For assay [2], the system named is MCF-7 cells. As to the kind of experiment: In vitro cell proliferation assay, Assay 1 (CyQUANT cell density). Format: cell-based. Conditions: Homo sapiens, MCF7, 72 h, MCF-7, 3 days with compound, read-out: concentration giving 50% inhibition of cell proliferation.
Source text: as §1
MCF-7 (ATCC HTB-22) or other adherent cells were typically seeded at 1×10^3 cells per well (excluding the peripheral wells) in DMEM (Sigma Aldrich) without phenol red, plus 10% foetal calf serum, 1% L-glutamine and 1% penicillin/streptomycin in 96 well tissue culture treated clear plates (Costar). The following day (day 1), the media was removed from a no treatment control plate and the plate stored at −80° C. The remaining plates were dosed with compound (diluted from 10 mM stock in DMSO using DMEM (without phenol red, 10% FCS, 1% L-glutamine, 1% penicillin/streptomycin). Untreated control wells were included on each plate. After 3 days in the presence/absence of compound (day 4) the media was removed and the plates stored at −80° C. Twenty four hours later the plates were thawed at room temperature and cell density determined using the CyQUANT cell proliferation assay kit (c-7026/c-7027 Molecular Probes Inc.) according to manufacturers directions. Briefly, 200 μl of a cell lysis/dye mixture (10 μl of 20× cell lysis buffer B, 190 μl of sterile water, 0.25 μl of CYQUANT GR dye) was added to each well and the plates incubated at room temperature for 5 minutes in the dark. […]

Compound `COc1cc2ncnc(Nc3ccc(/C=C/C(=O)NC4CCCC(C)C4)cc3)c2cc1OC` (stereo not drawn) [Compound 18] had a pIC50 at aurora2 kinase of 6.93. Further, in the assay on MCF-7 cells [1], the pIC50 was 5.61. Besides, in the assay with MCF7 cells, the “% Cells in G1” value turned out to be 30.96%, the “% Cells in G2/M” value is 49.62% and the “% Cells in S” value turned out to be 19.42%. Besides, the pIC50 in the assay on MCF-7 cells [2] was 5.20.

(Values after US7105669B1, “Quinazoline derivatives” (AstraZeneca AB, priority 1999, dated 2006).)
